{"source": "patent US20240352145A1", "about": "“EFFICACY OF ANTI-TROP-2-SN-38 ANTIBODY DRUG CONJUGATES FOR THERAPY OF TUMORS RELAPSED/REFRACTORY TO CHECKPOINT INHIBITORS” (Immunomedics, Inc., priority 2016, published 2024)", "key": {"TNBC [1]": {"tested_on": "TNBC", "assay_type": "in vivo, human", "procedure": "Medical History—The patient is a person who was first diagnosed in October 2007 with a 1.8 cm mass in their right breast. They underwent a right mastectomy with a sentinel node biopsy (no malignancy in nodes). The tumor was determined to be negative for ER, PR and Her-2 (i.e., TNBC). They proceeded with 4 cycles of AC (doxorubicin and cyclophosphamide) therapy, followed by weekly low dose paclitaxel (×12). […] They had local surgery to remove the node and then received XRT (radiation therapy) through March 2009. In June 2010 CT documented recurrent pulmonary and bone involvement. The patient enrolled in a clinical trial using AVASTIN® (bevacizumab), METMAB® (onartuzumab, […]), and TAXOL® (paclitaxel), which they were maintained on until March 2013, having a complete response, but eventual progression of peripheral lung nodule and node in AP (aortopulmonary) window. In September 2014, they started on PD-L1 antibody (MPDL3280A) for 6 cycles, but progressed in January 2015.\n2015 at a dose of 10 mg/kg, and has continued to receive this dose without reduction or delay in planned schedule now for 40+ doses."}, "TNBC [2]": {"tested_on": "TNBC", "assay": "Phase I/II, TNBC cohort", "assay_type": "in vivo, human", "description": "Previous treatments included cyclophosphamide, doxorubicin, carboplatin, gemcitabine, capecitabine, eribulin, cisplatinum, anastrozole, vinorelbine, bevacizumab and tamoxifen."}, "Calu-3": {"tested_on": "Calu-3", "assay": "In vitro cytotoxicity, Calu-3", "quoted_text": "Cell lines, antibodies, and chemotherapeutics—All human cancer cell lines used in this study were purchased from the American Type Culture Collection."}, "[3]": {"tested_on": "human gastric carcinoma xenograft, NCI-N87", "assay": "NCI-N87 gastric carcinoma xenograft, Example 17", "assay_type": "in vivo, mouse", "description": "In Vivo Therapeutic Studies—NCr female athymic nude (nu/nu) mice, 4-8 weeks old, were purchased from Taconic Farms (Germantown, NY). NCI-N87 gastric tumor xenografts were established by harvesting cells from tissue culture and making a final cell suspension 1:1 in matrigel (BD Bioscience; San Jose, CA), with each mouse receiving a total of 1×10^7 cells s.c. in the right flank. For BxPC-3. xenografts of 1 g were harvested, and a tumor suspension made in HBSS to a concentration of 40% tumor w/v. This suspension was mixed 1:1 with matrigel for a final tumor suspension of 20% w/v. […] For IHC, tumors were allowed to grow to approximately 0.5 cm^3 before the mice were euthanized and the tumors removed, formalin-fixed and paraffin-embedded. For therapy studies, mice were randomized into treatment groups and therapy begun when tumor volumes were approximately 0.25 cm^3.\nMice were euthanized and deemed to have succumbed to disease once tumors grew to greater than 1.0 cm^3 in size. […] Time to progression (TTP) was determined as time post-therapy initiation when the tumor grew more than 20% in size from its nadir.\nSurvival studies were analyzed using Kaplan-Meier plots (log-rank analysis), using the Prism GraphPad Software (v4.03) software package (Advanced Graphics Software, Inc., Encinitas, CA)."}, "[4]": {"tested_on": "metastatic non-small cell lung cancer (NSCLC)", "assay": "Phase I/II, metastatic NSCLC cohort", "assay_type": "in vivo, human", "protocol": "The best responses by RESIST 1.1 criteria were determined (not shown)."}, "PARP": {"tested_on": "PARP", "assay": "Immunoblotting, apoptosis signaling, NCI-N87 and BxPC-3", "assay_type": "cell-based, human", "conditions": "evident at 24 h, increased at 48 h", "procedure": "Immunoblotting—Cells (2×10^6) were plated in 6-well plates overnight. […] Parental hRS7 was used as a control for the ADC. Cells were lysed in buffer containing 10 mM Tris, pH 7.4, 150 mM NaCl, protease inhibitors and phosphatase inhibitors (2 mM […], 10 mM NaF). A total of 20 μg protein was resolved in a 4-20% SDS polyacrylamide gel, transferred onto a nitrocellulose membrane and blocked by 5% non-fat milk in 1×TBS-T (Tris-buffered saline, 0.1% Tween-20) for 1 h at room temperature. Membranes were probed overnight at 4° C. with primary antibodies followed by 1-h incubation with antirabbit secondary antibody (1:2500) at room temperature. Signal detection was done using a chemiluminescence kit (Supersignal West Dura, Thermo Scientific; Rockford, IL) with the membranes visualized on a Kodak Image Station […]. Primary antibodies p21Waf1/Cip1 (Cat. No. 2947), Caspase-3 (Cat. No. 9665), Caspase-7 (Cat. No. 9492), Caspase-9 (Cat. No. 9502), PARP (Cat. No. 9542), 3-actin (Cat. No. 4967), pJNK1/2 (Cat. No. 4668), JNK (Cat. No. 9258), and goat anti-rabbit-HRP secondary antibody (Cat. No. 7074) were obtained from Cell Signal Technology (Danvers, MA)."}, "gastric cancer": {"tested_on": "gastric cancer", "assay": "Case, stage IV metastatic gastric cancer"}, "[5]": {"tested_on": "BxPC-3 human pancreatic tumors", "assay": "BxPC-3 xenograft therapy", "assay_type": "in vivo, mouse", "procedure": "NCr female athymic nude (nu/nu) mice, 4 to 8 weeks old, and male Swiss-Webster mice, 10 weeks old, were purchased from Taconic Farms. Tolerability studies were performed in Cynomolgus monkeys (Macaca fascicularis; 2.5-4 kg male and female) by SNBL USA, Ltd. Animals were implanted subcutaneously with different human cancer cell lines. Tumor volume (TV) was determined by measurements in 2 dimensions using calipers, with volumes defined as: L×w^2/2, where L is the longest dimension of the tumor and w is the shortest. […] This dosing frequency reflected a consideration of the conjugate's serum half-life […], to allow a more continuous exposure to the ADC.\nStatistics—Growth curves are shown as percent change in initial TV over time. Statistical analysis of tumor growth was based on area under the curve (AUC). Profiles of individual tumor growth were obtained through linear-curve modeling. An f-test was employed to determine equality of variance between groups before statistical analysis of growth curves. A 2-tailed t-test was used to assess statistical significance between the various treatment groups and controls, except for the saline control, where a 1-tailed t-test was used (significance at P≤0.05). Statistical comparisons of AUC were performed only up to the time that the first animal within a group was euthanized due to progression."}}, "note": "Like-named read-outs stand apart in the source and are kept apart here."}
{"substance": "IMMU-132", "values": [{"measurement": "Best Response, shrinkage", "setting": "TNBC [1]; 10 mg/kg", "result": 54, "unit": "%"}, {"measurement": "Best Response", "setting": "TNBC [1]; 10 mg/kg, patient progressed after PD-L1 therapy", "result": "Partial response, confirmed"}, {"measurement": "decrease in sum of target lesion diameters", "setting": "TNBC [1]; CT 7 Apr. 2015, first assessment", "result": 33, "unit": "%"}, {"measurement": "decrease in sum of target lesion diameters", "setting": "TNBC [1]; CT 13 Sep. 2015", "result": 52, "unit": "%"}, {"measurement": "decrease in sum of target lesion diameters", "setting": "TNBC [1]; CT 15 November", "result": 54, "unit": "%"}, {"measurement": "decrease in sum of target lesion diameters", "setting": "TNBC [1]; CT 18 May 2015", "result": 48, "unit": "%"}, {"measurement": "decrease in sum of target lesion diameters", "setting": "TNBC [1]; CT 19 Jul. 2015", "result": 50, "unit": "%"}, {"measurement": "decrease in sum of target lesion diameters", "setting": "TNBC [1]; CT 25 Feb. 2016", "result": 46, "unit": "%"}, {"measurement": "time to progression", "setting": "TNBC [1]; not reached", "result": "≥ 12.4", "unit": "months"}, {"measurement": "confirmed complete responses (CR), patients", "setting": "TNBC [2]; 10 mg/kg", "result": 2}, {"measurement": "partial responses (PR), patients", "setting": "TNBC [2]; 10 mg/kg", "result": 13}, {"measurement": "stable disease (SD), patients", "setting": "TNBC [2]; 10 mg/kg", "result": 25}, {"measurement": "objective response rate", "setting": "TNBC [2]; 15/52", "result": 29, "unit": "%"}, {"measurement": "favorable response rate (CR plus PR plus SD)", "setting": "TNBC [2]; in vivo", "result": 71, "unit": "%"}, {"measurement": "median time to progression", "setting": "TNBC [2]; in vivo", "result": 9.4, "unit": "months"}, {"measurement": "IC50", "setting": "Calu-3", "result": 9.97, "unit": "nM"}, {"measurement": "anti-tumor effects vs non-specific control", "setting": "[3]; 17.5 mg/kg, twice weekly x 4 weeks", "result": "significant anti-tumor effects"}, {"measurement": "median survival time (MST)", "setting": "[3]; 14 days for saline control", "result": 66, "unit": "days"}, {"measurement": "mean time to progression (TTP)", "setting": "[3]; mouse, in vivo", "result": "41.7 ± 4.2", "unit": "days"}, {"measurement": "partial responders, mice", "setting": "[3]; mouse, in vivo", "result": "6 of 7"}, {"measurement": "median PFS", "setting": "[4]; 8 mg/kg", "result": 3.4, "unit": "months"}, {"measurement": "median PFS", "setting": "[4]; 10 mg/kg", "result": 3.8, "unit": "months"}, {"measurement": "patients with PR or SD", "setting": "[4]; 21/33", "result": 64, "unit": "%"}, {"measurement": "PR, patients", "setting": "[4]; 29 assessable patients, 8 or 10 mg/kg", "result": 8}, {"measurement": "median time to progression", "setting": "[4]; in vivo", "result": "9/4"}, {"measurement": "PARP cleavage", "setting": "PARP", "result": "mediated PARP cleavage"}, {"measurement": "tolerability", "setting": "gastric cancer; 10 mg/kg", "result": "some mild nausea and diarrhea"}, {"measurement": "disease reduction from baseline by RECIST", "setting": "gastric cancer; after another 5 courses", "result": "about 35%"}, {"measurement": "tumor volume (TV)", "setting": "[5]; day 21, equivalent amounts of ADC", "result": "0.24±0.11", "unit": "cm^3"}, {"measurement": "tumor volume (TV)", "setting": "[5]; day 25", "result": "0.27±0.18", "unit": "cm^3"}]}
